We go through 5 compounds from ChEMBL document CHEMBL1124228, “Synthesis of (aryloxy)alkylamines. 1. Novel antisecretory agents with H+K+-ATPase inhibitory activity” (J Med Chem, 1988).

Test [1] has as its target T1, Potassium-transporting ATPase (Homo sapiens, UniProt P20648). The test can be described thus: Antisecretory activity evaluated by the inhibition of 14C -AP uptake in isolated rabbit parietal cells stimulated by exogenous histamine. Type of test: functional, Oryctolagus cuniculus. As to conditions: target entry is the homologue from another species.
Test [2] concerns Rattus norvegicus. Put plainly: Percent inhibition of total acid secretion in pylorus-ligated rats at an id dose of 40 mg/kg. As to conditions: route intraduodenal. Type of test: functional.
The target in test [3] is T2, Potassium-transporting ATPase (Homo sapiens, UniProt P20648+P51164). Put plainly: (§1) Antisecretory activity evaluated by the inhibition of 14C -AP uptake in isolated rabbit parietal cells stimulated by dibutyryl cyclic adenosine 3', 5' -monophosphate (dcAMP). The class given is functional, Oryctolagus cuniculus. The settings on record: target entry is the homologue from another species.
T2 sequence (P20648 whole entry): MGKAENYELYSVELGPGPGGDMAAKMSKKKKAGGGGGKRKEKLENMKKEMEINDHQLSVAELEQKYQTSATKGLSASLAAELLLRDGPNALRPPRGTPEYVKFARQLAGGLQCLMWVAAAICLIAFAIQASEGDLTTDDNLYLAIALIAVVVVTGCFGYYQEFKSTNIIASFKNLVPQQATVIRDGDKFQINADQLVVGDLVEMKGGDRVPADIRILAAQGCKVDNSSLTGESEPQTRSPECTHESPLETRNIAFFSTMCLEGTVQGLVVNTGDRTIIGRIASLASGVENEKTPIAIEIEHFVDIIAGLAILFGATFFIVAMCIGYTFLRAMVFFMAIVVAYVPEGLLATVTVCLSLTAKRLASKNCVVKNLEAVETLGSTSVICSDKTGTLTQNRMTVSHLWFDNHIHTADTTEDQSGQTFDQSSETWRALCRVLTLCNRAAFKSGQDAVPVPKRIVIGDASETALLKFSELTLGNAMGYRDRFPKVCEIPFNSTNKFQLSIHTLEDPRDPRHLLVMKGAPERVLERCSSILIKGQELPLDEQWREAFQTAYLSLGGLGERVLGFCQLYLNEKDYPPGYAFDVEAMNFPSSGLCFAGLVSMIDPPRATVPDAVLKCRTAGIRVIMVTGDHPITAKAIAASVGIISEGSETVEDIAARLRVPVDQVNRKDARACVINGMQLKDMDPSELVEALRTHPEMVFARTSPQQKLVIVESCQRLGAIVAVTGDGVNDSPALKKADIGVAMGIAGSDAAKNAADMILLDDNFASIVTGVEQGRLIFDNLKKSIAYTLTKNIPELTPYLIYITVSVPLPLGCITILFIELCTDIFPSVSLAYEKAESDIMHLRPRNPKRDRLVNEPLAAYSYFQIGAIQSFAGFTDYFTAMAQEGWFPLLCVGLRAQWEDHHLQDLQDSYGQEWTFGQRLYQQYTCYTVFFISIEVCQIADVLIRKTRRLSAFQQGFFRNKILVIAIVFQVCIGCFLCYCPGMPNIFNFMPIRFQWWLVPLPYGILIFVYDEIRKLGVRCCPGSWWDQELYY
T2 sequence (P51164 whole entry): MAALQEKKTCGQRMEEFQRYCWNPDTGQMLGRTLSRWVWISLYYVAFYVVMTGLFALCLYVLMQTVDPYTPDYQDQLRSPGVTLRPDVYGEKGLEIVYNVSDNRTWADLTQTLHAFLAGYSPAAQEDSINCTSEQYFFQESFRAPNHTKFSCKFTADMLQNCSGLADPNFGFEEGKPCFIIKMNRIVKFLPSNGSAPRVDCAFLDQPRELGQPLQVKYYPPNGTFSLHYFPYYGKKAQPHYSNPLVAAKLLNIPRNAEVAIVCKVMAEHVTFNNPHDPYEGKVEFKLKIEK

In test [4] the test system is Rattus norvegicus. Put plainly: Effective dose required for the inhibition of total acid secretion in pylorus-ligated rats at 40 mg/kg. Type of test: functional.
Test [5] concerns the target T1, Potassium-transporting ATPase. The test is described as §1. The class given is functional, Oryctolagus cuniculus. As to conditions: target entry is the homologue from another species.
The target of test [6] is T2, Potassium-transporting ATPase. The test can be described thus: Evaluated for the inhibition of H+/K+ ATPase enzyme from fundic mucosa of white rabbits at 100 uM. The class given is protein-complex assay. The settings on record: Oryctolagus cuniculus, target entry is the homologue from another species.
Test [7] deals with Rattus norvegicus. The test can be described thus: Effective dose required for the inhibition of total acid secretion in pylorus-ligated rats at 20 mg/kg. Type of test: functional.
In test [8] the test system is Rattus norvegicus. Put plainly: Percent inhibition of total acid secretion in pylorus-ligated rats at an id dose of 10 mg/kg. The class given is functional. The settings on record: route intraduodenal.
In test [9] the test system is Rattus norvegicus. The test can be described thus: Percent inhibition of total acid secretion in pylorus-ligated rats at an id dose of 20 mg/kg. Type of test: functional. The settings on record: route intraduodenal.

Some results are limits rather than exact numbers.

In the case of `CCCCN(CCCC)CCCCOc1ccc(/C=C/c2nc3ccccc3o2)cc1`, the IC50 in test [1] is 180 nM; in test [3] it was under 10000 nM. Further, the inhibition in vivo at 40 mg/kg in the test on Rattus norvegicus [2] is 14%.
With `CCCN(CCC)CCCOc1ccc(-c2nc3ccccc3s2)cc1`, the IC50 in [1] stood at 210 nM; in [5] it was 140 nM. This compound also showed an inhibition in vivo at 40 mg/kg in the test on Rattus norvegicus [4] of 42%.
Consider `CCCCN(CCCC)CCCOc1ccc(-c2nc(-c3ccccc3)sc2C)cc1`, for which, in [6], the inhibition is 65%. For the same compound, the IC50 in test [1] worked out at 270 nM; in [5], 230 nM. In the test on Rattus norvegicus [7], this compound registered an inhibition in vivo at 20 mg/kg of 36%.
In turn, `c1ccc(-c2nc(-c3ccc(OCCCn4ccnn4)cc3)cs2)cc1` came in with an IC50 in [1] of 10000 nM. In the test on Rattus norvegicus [8], at 10 mg/kg the inhibition in vivo was 72%.
`c1ccc(-c2nc(-c3ccc(OCCCN4CCCC4)cc3)cs2)cc1`: the IC50 in [1] is 390 nM; in test [3], under 10000 nM. In the test on Rattus norvegicus [9], this compound gave an inhibition in vivo at 20 mg/kg of 36%.
